Tests used:
[1] = refractive index (Na D-line) (dimensionless); details: 298.15 K; 101.33 kPa; Liquid; Standard Abbe refractometry
[2] = for mass density: 298.15 K, 101.33 kPa, Liquid, Vibrating tube method; for Normal melting temperature: Crystal
[3] = refractive index (Na D-line) (dimensionless); xn = mol fraction of the nth substance listed; details: 298.15 K, 101 kPa, Liquid, Standard Abbe refractometry
[4] = xn = mol fraction of the nth substance listed; details: 298.15 K, 101 kPa, Liquid, Vibrating tube method

CCCCCCCCCCO [decan-1-ol]
Details	Normal melting temperature [°C]	mass density [kg/m3]	refractive index
[1]	–	–	1.43541
[2]	7.04	826.59	–

CCCCCCCCCCO [decan-1-ol] + CCCCCCCCO
[3]
Details	refractive index
x2 = 0.05	1.435
x2 = 0.0996	1.4346
x2 = 0.1996	1.434
x2 = 0.2997	1.4333
x2 = 0.4005	1.4325
x2 = 0.5006	1.4318
x2 = 0.6005	1.431
x2 = 0.7006	1.4301
x2 = 0.8002	1.4293
x2 = 0.9	1.4284
x2 = 0.9507	1.4279

CCCCCCCCO [octan-1-ol]
Details	Normal melting temperature [°C]	mass density [kg/m3]	refractive index
[1]	–	–	1.42754
[2]	-15.30	821.76	–

CCCCCCCCN(CCCCCCCC)CCCCCCCC [trioctylamine]
Details	Normal melting temperature [°C]	mass density [kg/m3]	refractive index
[1]	–	–	1.44758
[2]	-34.42	807.46	–

CCCCCCCCN(CCCCCCCC)CCCCCCCC [trioctylamine] + CCCCCCCCCCO
Details	mass density, [4] [kg/m3]	refractive index, [3]
x1 = 0.0504	825.4	1.437
x1 = 0.0998	824	1.4384
x1 = 0.2002	821.6	1.4406
x1 = 0.3	819.3	1.4424
x1 = 0.4002	817.3	1.4437
x1 = 0.501	815.4	1.4448
x1 = 0.6008	813.8	1.4457
x1 = 0.7007	812.3	1.4464
x1 = 0.8014	810.7	1.4469
x1 = 0.9022	809.2	1.4473
x1 = 0.9522	808.6	1.4475

CCCCCCCCN(CCCCCCCC)CCCCCCCC [trioctylamine] + CCCCCCCCO
Details	mass density, [4] [kg/m3]	refractive index, [3]
x1 = 0.0497	820.8	1.4311
x1 = 0.1	819.7	1.433
x1 = 0.2	817.8	1.4359
x1 = 0.3004	816	1.4389
x1 = 0.4001	814.5	1.4415
x1 = 0.4997	813.1	1.4432
x1 = 0.6012	811.9	1.4445
x1 = 0.701	810.7	1.4453
x1 = 0.8002	809.7	1.4461
x1 = 0.8962	808.7	1.447
x1 = 0.9496	808.1	1.4474

Reference: the NIST ThermoML archive (doi:10.1021/je900586f)
